Several values for one entry are separate records, joined by “and”; a condition that tells them apart may be missing. Equal values may be shown once.
Tested on: 425362-245-T-J1 tumor spheroids, viability % test/control
Experiment: Anticancer human tumor 425362-245-T-J1 patient-derived melanoma cell line growth inhibition
Settings: spheroids with HUVEC and MSC; for viability, T/C: stronger effect = lower value
Method in brief: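 Single agents and combinations were tested on spheroids built from tumor cells plus HUVEC and hMSC, at half-log dilutions starting at or near clinical Cmax, else 10 microM; final DMSO 0.25% (v/v).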

[1] = curve of first compound, second compound 0.003 µM
[2] = curve of first compound, second compound 0.00949 µM
[3] = curve of first compound, second compound 0.03 µM
[4] = curve of first compound, second compound 0.0949 µM
[5] = curve of first compound, second compound 0.3 µM
[6] = second compound 0.003 µM, first compound 0.0316 µM
[7] = second compound 0.003 µM, first compound 0.1 µM
[8] = second compound 0.003 µM, first compound 0.316 µM
[9] = second compound 0.003 µM, first compound 1 µM
[10] = second compound 0.003 µM, first compound 3.16 µM
[11] = second compound 0.003 µM, first compound 10 µM
[12] = second compound 0.00949 µM, first compound 0.0316 µM
[13] = second compound 0.00949 µM, first compound 0.1 µM
[14] = second compound 0.00949 µM, first compound 0.316 µM
[15] = second compound 0.00949 µM, first compound 1 µM
[16] = second compound 0.00949 µM, first compound 3.16 µM
[17] = second compound 0.00949 µM, first compound 10 µM
[18] = second compound 0.03 µM, first compound 0.0316 µM
[19] = second compound 0.03 µM, first compound 0.1 µM
[20] = second compound 0.03 µM, first compound 0.316 µM
[21] = second compound 0.03 µM, first compound 1 µM
[22] = second compound 0.03 µM, first compound 3.16 µM
[23] = second compound 0.03 µM, first compound 10 µM
[24] = second compound 0.0949 µM, first compound 0.0316 µM
[25] = second compound 0.0949 µM, first compound 0.1 µM
[26] = second compound 0.0949 µM, first compound 0.316 µM
[27] = second compound 0.0949 µM, first compound 1 µM
[28] = second compound 0.0949 µM, first compound 3.16 µM
[29] = second compound 0.0949 µM, first compound 10 µM
[30] = second compound 0.3 µM, first compound 0.0316 µM
[31] = second compound 0.3 µM, first compound 0.1 µM
[32] = second compound 0.3 µM, first compound 0.316 µM
[33] = second compound 0.3 µM, first compound 1 µM
[34] = second compound 0.3 µM, first compound 3.16 µM
[35] = second compound 0.3 µM, first compound 10 µM
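Further: spheroids exposed to agents for 7 days.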

Work on `[2H]c1nc(C)nc([2H])c1-c1cc(NC[C@@H](C)c2cccc3c(C(=O)NC)ccnc23)ncn1` + Cn1nnc2c(C(N)=O)ncn2c1=O yielded an IC50 (curve of first compound, second compound 1 µM) greater than 10000 nM, an IC50 (curve of first compound, second compound 3.16 µM) greater than 10000 nM and an IC50 (curve of first compound, second compound 10 µM) greater than 10000 nM. It also gave an IC50 (curve of first compound, second compound 31.6 µM) greater than 10000 nM, an IC50 (curve of first compound, second compound 100 µM) greater than 10000 nM and a viability, T/C (second compound 1 µM, first compound 0.0316 µM) of 88.2%. The viability, T/C (second compound 1 µM, first compound 0.1 µM) was 96.8%, the viability, T/C (second compound 1 µM, first compound 0.316 µM) was 95.9% and the viability, T/C (second compound 1 µM, first compound 1 µM) was 71.2%. For the same compound, the viability, T/C (second compound 1 µM, first compound 3.16 µM) was 93.4%, the viability, T/C (second compound 1 µM, first compound 10 µM) was 76.9% and the viability, T/C (second compound 3.16 µM, first compound 0.0316 µM) was 108%. The viability, T/C (second compound 3.16 µM, first compound 0.1 µM) was 91.8%, the viability, T/C (second compound 3.16 µM, first compound 0.316 µM) was 102% and the viability, T/C (second compound 3.16 µM, first compound 1 µM) was 105%. It also gave a viability, T/C (second compound 3.16 µM, first compound 3.16 µM) of 109%, a viability, T/C (second compound 3.16 µM, first compound 10 µM) of 94.4% and a viability, T/C (second compound 10 µM, first compound 0.0316 µM) of 99.2%. The viability, T/C (second compound 10 µM, first compound 0.1 µM) was 114%, the viability, T/C (second compound 10 µM, first compound 0.316 µM) was 110% and the viability, T/C (second compound 10 µM, first compound 1 µM) was 107%. It also gave a viability, T/C (second compound 10 µM, first compound 3.16 µM) of 112%, a viability, T/C (second compound 10 µM, first compound 10 µM) of 84.2% and a viability, T/C (second compound 31.6 µM, first compound 0.0316 µM) of 105%. For the same compound, the viability, T/C (second compound 31.6 µM, first compound 0.1 µM) was 113%, the viability, T/C (second compound 31.6 µM, first compound 0.316 µM) was 104% and the viability, T/C (second compound 31.6 µM, first compound 1 µM) was 110%. The viability, T/C (second compound 31.6 µM, first compound 3.16 µM) was 101%, the viability, T/C (second compound 31.6 µM, first compound 10 µM) was 85.5% and the viability, T/C (second compound 100 µM, first compound 0.0316 µM) was 82.7%. For the same compound, the viability, T/C (second compound 100 µM, first compound 0.1 µM) was 91.3%, the viability, T/C (second compound 100 µM, first compound 0.316 µM) was 87.4% and the viability, T/C (second compound 100 µM, first compound 1 µM) was 86.5%. The viability, T/C (second compound 100 µM, first compound 3.16 µM) was 88.2% and the viability, T/C (second compound 100 µM, first compound 10 µM) was 83.5%.

`CC(C)n1c(=O)n(C)c2cnc3cc(F)c(-c4ccc(OCCCN5CCCCC5)nc4)cc3c21` was tested, and the viability, T/C (compound 0.0316 µM) was 56.5% and 67.4% and 67.2%, the viability, T/C (compound 0.1 µM) was 43.4% and 60.3% and 69.2% and the viability, T/C (compound 0.316 µM) was 44.1% and 39.9% and 36.1%. The viability, T/C (compound 1 µM) was 27.5% and 20.1% and 23.2%, the viability, T/C (compound 3.16 µM) was 17.4% and 14.7% and 14.3% and the viability, T/C (compound 10 µM) was 7.66% and 5.49% and 5.26%. The IC50 (curve of compound) was 72.1 nM and 175 nM and 198 nM.

For `Cn1ncnc1[C@H]1c2n[nH]c(=O)c3cc(F)cc(c23)N[C@@H]1c1ccc(F)cc1`, the viability, T/C (compound 0.00949 µM) was 74.9% and 69% and 59.1%, the viability, T/C (compound 0.03 µM) was 46.1% and 42.9% and 33.5% and the viability, T/C (compound 0.0949 µM) was 35.3% and 25.2% and 18.1%. For the same compound, the viability, T/C (compound 0.3 µM) was 16.1% and 14.1% and 15.6%, the viability, T/C (compound 0.949 µM) was 10.1% and 9.44% and 9.39% and the viability, T/C (compound 3 µM) was 3.22% and 2.7% and 1.7%. The IC50 (curve of compound) was 29 nM and 22 nM and 14.1 nM.

`COc1cc(C)[nH]c(=O)c1CN1CCc2c(Cl)cc(C(OC)C3COC3)c(Cl)c2C1=O` (centres undefined) + CC[C@@]1(O)C(=O)OCc2c1cc1n(c2=O)Cc2cc3c(CN(C)C)c(O)ccc3nc2-1 was tested, and the IC50 [1] was greater than 10000 nM, the IC50 [2] was greater than 10000 nM and the IC50 [3] was less than 31.6 nM. For the same compound, the IC50 [4] was less than 31.6 nM, the IC50 [5] was less than 31.6 nM and the viability, T/C [6] was 98.7%. It also gave a viability, T/C [7] of 102%, a viability, T/C [8] of 100% and a viability, T/C [9] of 94.3%. For the same compound, the viability, T/C [10] was 78.6%, the viability, T/C [11] was 79.5% and the viability, T/C [12] was 91%. It also gave a viability, T/C [13] of 89.6%, a viability, T/C [14] of 85.6% and a viability, T/C [15] of 80.6%. For the same compound, the viability, T/C [16] was 75.8%, the viability, T/C [17] was 59.5% and the viability, T/C [18] was 53.7%. It also gave a viability, T/C [19] of 37.2%, a viability, T/C [20] of 46.5% and a viability, T/C [21] of 47.5%. The viability, T/C [22] was 29.9%, the viability, T/C [23] was 21.6% and the viability, T/C [24] was 7.06%. For the same compound, the viability, T/C [25] was 7.25%, the viability, T/C [26] was 6.93% and the viability, T/C [27] was 7.04%. It also gave a viability, T/C [28] of 5.23%, a viability, T/C [29] of 3.44% and a viability, T/C [30] of 1.81%. The viability, T/C [31] was 2.03%, the viability, T/C [32] was 1.77% and the viability, T/C [33] was 1.79%. The viability, T/C [34] was 1.76% and the viability, T/C [35] was 1.76%.

`[2H]c1nc(C)nc([2H])c1-c1cc(NC[C@@H](C)c2cccc3c(C(=O)NC)ccnc23)ncn1` + CC[C@@]1(O)C(=O)OCc2c1cc1n(c2=O)Cc2cc3c(CN(C)C)c(O)ccc3nc2-1 gave an IC50 [1] of 3450 nM, an IC50 [2] of 3590 nM and an IC50 [3] of less than 31.6 nM. It also gave an IC50 [4] of less than 31.6 nM, an IC50 [5] of less than 31.6 nM and a viability, T/C [6] of 93.9%. It also gave a viability, T/C [7] of 83.5%, a viability, T/C [8] of 76.7% and a viability, T/C [9] of 74.5%. It also gave a viability, T/C [10] of 47.7%, a viability, T/C [11] of 31.4% and a viability, T/C [12] of 76.2%. The viability, T/C [13] was 60.4%, the viability, T/C [14] was 72.9% and the viability, T/C [15] was 63.8%. It also gave a viability, T/C [16] of 53%, a viability, T/C [17] of 25.5% and a viability, T/C [18] of 39.5%. For the same compound, the viability, T/C [19] was 32.2%, the viability, T/C [20] was 36.2% and the viability, T/C [21] was 28.3%. For the same compound, the viability, T/C [22] was 20.5%, the viability, T/C [23] was 9.7% and the viability, T/C [24] was 6.85%. The viability, T/C [25] was 5.79%, the viability, T/C [26] was 4.9% and the viability, T/C [27] was 6.11%. For the same compound, the viability, T/C [28] was 2.84%, the viability, T/C [29] was 3.55% and the viability, T/C [30] was 1.6%. The viability, T/C [31] was 1.7%, the viability, T/C [32] was 1.43% and the viability, T/C [33] was 1.44%. It also gave a viability, T/C [34] of 1.47% and a viability, T/C [35] of 1.38%.

— PubChem BioAssay AID1845198 (Molecular Pharmacology Branch, DTP, NCI, 2023)
